Assay results taken from ChEMBL document CHEMBL5230103, “Hydroxamic acid hybrids as the potential anticancer agents: An Overview” (Eur J Med Chem, 2020).
Converted amounts (≈) assume the structure as drawn.

What was measured:
PC-3 [1] = assay: Cytotoxicity against human PC-3 cells assessed as inhibition of cell growth by SRB assay; format: functional, cell-based
Histone deacetylase = assay: Inhibition of HDAC (unknown origin); format: protein assay, Homo sapiens
MV4-11 = assay: Cytotoxicity against human MV4-11 cells assessed as inhibition of cell growth by SRB assay; format: functional, cell-based
HCT-116 = assay: Cytotoxicity against human HCT-116 cells assessed as inhibition of cell growth by MTT assay; format: functional, cell-based
MCF7 = assay: Cytotoxicity against human MCF7 cells assessed as inhibition of cell growth by MTT assay; format: functional, cell-based
HepG2 = assay: Cytotoxicity against human HepG2 cells assessed as inhibition of cell growth by MTT assay; format: functional, cell-based
MDA-MB-231 = assay: Cytotoxicity against human MDA-MB-231 cells assessed as inhibition of cell growth by MTT assay; format: functional, cell-based
K562 = assay: Cytotoxicity against human K562 cells assessed as inhibition of cell growth by MTT assay; format: functional, cell-based
PC-3 [2] = assay: Cytotoxicity against human PC-3 cells assessed as inhibition of cell growth by MTT assay; format: functional, cell-based
A549 = assay: Cytotoxicity against human A549 cells assessed as inhibition of cell growth by MTT assay; format: functional, cell-based
ASPC1 = assay: Cytotoxicity against human ASPC1 cells assessed as inhibition of cell growth by MTT assay; format: functional, cell-based
SW-620 = assay: Cytotoxicity against human SW620 cells assessed as inhibition of cell growth by MTT assay; format: functional, cell-based
HL-60 = assay: Antiproliferative activity against human HL-60 cells assessed as inhibition of cell growth by MTT assay; format: functional, cell-based
RPMI-8226 = assay: Cytotoxicity against human RPMI-8226 cells assessed as inhibition of cell growth by MTS assay; format: functional, cell-based
Histone deacetylase 2 = Histone deacetylase 2 (Homo sapiens, UniProt Q92769); assay: Inhibition of HDAC2 (unknown origin)
Sequence of Histone deacetylase 2 (Q92769 whole entry): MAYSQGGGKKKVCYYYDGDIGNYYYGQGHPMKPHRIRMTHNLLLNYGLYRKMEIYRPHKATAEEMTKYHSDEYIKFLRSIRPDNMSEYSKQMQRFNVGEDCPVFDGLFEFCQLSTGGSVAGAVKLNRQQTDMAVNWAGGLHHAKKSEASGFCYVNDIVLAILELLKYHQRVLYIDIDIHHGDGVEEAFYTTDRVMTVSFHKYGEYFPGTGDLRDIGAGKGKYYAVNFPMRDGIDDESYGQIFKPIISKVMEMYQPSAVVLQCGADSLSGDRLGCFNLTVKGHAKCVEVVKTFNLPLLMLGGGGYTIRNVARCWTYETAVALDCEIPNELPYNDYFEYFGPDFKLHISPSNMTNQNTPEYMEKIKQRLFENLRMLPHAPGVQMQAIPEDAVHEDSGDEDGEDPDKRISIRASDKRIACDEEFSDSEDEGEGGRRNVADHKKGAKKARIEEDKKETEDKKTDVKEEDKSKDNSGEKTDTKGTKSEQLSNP

Compound | IC50 (PC-3 [1]) [nM] | IC50 (Histone deacetylase) [nM] | IC50 (MV4-11) [nM] | IC50 (MCF7) | other results
CC(C)n1cnc2c(-c3cccc(OCCCCCCCC(=O)NO)c3)nc(N3CCOCC3)nc21 | 160 | 35 | 160 |  | 
CC(C)n1cnc2c(-c3cccc(COCCCCCCCC(=O)NO)c3)nc(N3CCOCC3)nc21 | 160 | 35 | 160 |  | 
COc1ccc(/C=C/C(=O)c2ccc(OCC(=O)NO)cc2)cc1 |  |  |  | 620 nM | IC50 (HCT-116): 620 nM; IC50 (HepG2): 620 nM
O=C(CCC(=O)Nc1nnc(-c2ccc(Cl)cc2)s1)NO |  | 200 |  |  | IC50 (MDA-MB-231): 14700 nM; IC50 (K562): 14700 nM; IC50 (PC-3 [2]): 14700 nM; IC50 (A549): 14700 nM
O=C(CCCCCCC(=O)Nc1nnc(-c2cccs2)s1)NO |  |  |  | 880 nM | IC50 (PC-3 [2]): 880 nM; IC50 (ASPC1): 880 nM; IC50 (SW-620): 880 nM
C[C@H]1[C@@H](NC(=O)CCCCC(=O)NO)O[C@@H]2O[C@@]3(C)CC[C@H]4[C@H](C)CC[C@@H]1[C@@]24OO3 |  |  |  | 1.28 µg/mL | IC50 (HL-60): 1.28 µg/mL (≈ 3 µM); IC50 (HepG2): 1.28 µg/mL
CC(C)n1cnc2c(-c3ccc(OCC(=O)NO)cc3)nc(N3CCOCC3)nc21 | 970 | 278 | 970 |  | 
CCCCCSc1ncc(C(=O)NO)c(N(Cc2ccccc2)S(=O)(=O)c2ccc(OC)cc2)n1 |  |  |  |  | IC50 (RPMI-8226): > 7800 nM
O=C(CCCCCCN1C(=O)C2(OCCO2)c2cccc(Cl)c21)NO |  |  |  |  | IC50 (PC-3 [2]): 50 nM; IC50 (ASPC1): 50 nM; IC50 (SW-620): 50 nM; IC50 (Histone deacetylase 2): 30 nM
CC(C)n1cnc2c(-c3ccc(COCC(=O)NO)cc3)nc(N3CCOCC3)nc21 | 970 | 278 | 970 |  | 
O=C(COc1ccc(C(=O)/C=C/c2ccccc2)cc1)NO |  |  |  | 620 nM | IC50 (HCT-116): 620 nM; IC50 (HepG2): 620 nM
CCCCCCSc1ncc(C(=O)NO)c(N(Cc2ccccc2)S(=O)(=O)c2ccc(OC)cc2)n1 |  |  |  |  | IC50 (RPMI-8226): > 7800 nM
O=C(CCCCCCn1cnc2c(c1=O)C1CCCCC1S2)NO (configuration not stated) |  |  |  | 3320 nM | IC50 (HCT-116): 3320 nM; IC50 (HepG2): 3320 nM
O=C(CCCCCCCn1cnc2c(c1=O)C1CCCCC1S2)NO (configuration not stated) |  |  |  | 3320 nM | IC50 (HCT-116): 3320 nM; IC50 (HepG2): 3320 nM
CCCCCSc1ncc(C(=O)NO)c(N(Cc2ccccc2)S(=O)(=O)c2ccc(F)cc2)n1 |  |  |  |  | IC50 (RPMI-8226): > 5600 nM
CC(C)n1cnc2c(-c3ccc(OCCCCCC(=O)NO)cc3)nc(N3CCOCC3)nc21 | 970 | 278 | 970 |  | 
CC(C)n1cnc2c(-c3cccc(COCCCCCC(=O)NO)c3)nc(N3CCOCC3)nc21 | 160 | 35 | 160 |  | 
CC(C)n1cnc2c(-c3ccc(COCCCCCCC(=O)NO)cc3)nc(N3CCOCC3)nc21 | 970 | 278 | 970 |  | 
O=C(/C=C/c1ccc(CN2C(=O)C3(OCCO3)c3ccccc32)cc1)NO |  |  |  |  | IC50 (PC-3 [2]): > 3050 nM; IC50 (ASPC1): > 3050 nM; IC50 (SW-620): > 3050 nM
CC(C)n1cnc2c(-c3ccc(COCCCCC(=O)NO)cc3)nc(N3CCOCC3)nc21 | 970 | 278 | 970 |  | 
CC(C)c1ccc(C(C)c2nnc(NC(=O)CCC(=O)NO)s2)cc1 (configuration not stated) |  | 200 |  |  | IC50 (MDA-MB-231): 14700 nM; IC50 (K562): 14700 nM; IC50 (PC-3 [2]): 14700 nM; IC50 (A549): 14700 nM
CC(C)n1cnc2c(-c3ccc(OCCCCCCCC(=O)NO)cc3)nc(N3CCOCC3)nc21 | 970 | 278 | 970 |  | 
COc1ccc2c(c1)C1(OCCO1)C(=O)N2CCCCCCC(=O)NO |  |  |  |  | IC50 (PC-3 [2]): 50 nM; IC50 (ASPC1): 50 nM; IC50 (SW-620): 50 nM; IC50 (Histone deacetylase 2): 30 nM
CC(C)n1cnc2c(-c3ccc(OCCCCCCC(=O)NO)cc3)nc(N3CCOCC3)nc21 | 970 | 278 | 970 |  | 

Compound | IC50 (PC-3 [1]) [nM] | IC50 (Histone deacetylase) [nM] | IC50 (MV4-11) [nM] | IC50 (MCF7) | other results
CC(C)n1cnc2c(-c3cccc(OCC(=O)NO)c3)nc(N3CCOCC3)nc21 | 160 | 35 | 160 |  | 
O=C(COc1ccc(C(=O)/C=C/c2ccc(F)cc2)cc1)NO |  |  |  | 620 nM | IC50 (HCT-116): 620 nM; IC50 (HepG2): 620 nM
CC(C)n1cnc2c(-c3cccc(COCCCCC(=O)NO)c3)nc(N3CCOCC3)nc21 | 160 | 35 | 160 |  | 
C[C@H]1[C@@H](NC(=O)CCCC(=O)NO)O[C@@H]2O[C@@]3(C)CC[C@H]4[C@H](C)CC[C@@H]1[C@@]24OO3 |  |  |  | 1.28 µg/mL | IC50 (HL-60): 1.28 µg/mL (≈ 3.1 µM); IC50 (HepG2): 1.28 µg/mL
CC(C)n1cnc2c(-c3cccc(OCCCCCCC(=O)NO)c3)nc(N3CCOCC3)nc21 | 160 | 35 | 160 |  | 
C[C@H]1[C@@H](NC(=O)CCCCCCCC(=O)NO)O[C@@H]2O[C@@]3(C)CC[C@H]4[C@H](C)CC[C@@H]1[C@@]24OO3 |  |  |  | 1.28 µg/mL | IC50 (HL-60): 1.28 µg/mL (≈ 2.73 µM); IC50 (HepG2): 1.28 µg/mL
CC(C)n1cnc2c(-c3cccc(COCC(=O)NO)c3)nc(N3CCOCC3)nc21 | 160 | 35 | 160 |  | 
C[C@H]1[C@@H](NC(=O)CCCCCC(=O)NO)O[C@@H]2O[C@@]3(C)CC[C@H]4[C@H](C)CC[C@@H]1[C@@]24OO3 |  |  |  | 1.28 µg/mL | IC50 (HL-60): 1.28 µg/mL (≈ 2.91 µM); IC50 (HepG2): 1.28 µg/mL
CC(C)n1cnc2c(-c3ccc(COCCCCCCCC(=O)NO)cc3)nc(N3CCOCC3)nc21 | 970 | 278 | 970 |  | 
O=C(Cn1cnc2c(c1=O)C1CCCCC1S2)NCc1ccc(C(=O)NO)cc1 (configuration not stated) |  |  |  | 4860 nM | IC50 (HCT-116): 4860 nM; IC50 (HepG2): 4860 nM
CC(C)n1cnc2c(-c3ccc(OCCCCC(=O)NO)cc3)nc(N3CCOCC3)nc21 | 970 | 278 | 970 |  | 
Cc1ccc(-c2nnc(NC(=O)CCCCCCC(=O)NO)s2)s1 |  |  |  | 880 nM | IC50 (PC-3 [2]): 880 nM; IC50 (ASPC1): 880 nM; IC50 (SW-620): 880 nM
CC(C)n1cnc2c(-c3ccc(COCCCCCC(=O)NO)cc3)nc(N3CCOCC3)nc21 | 970 | 278 | 970 |  | 
O=C(CCC(=O)Nc1nnc(-c2ccc(O)cc2)s1)NO |  | 200 |  |  | IC50 (MDA-MB-231): 14700 nM; IC50 (K562): 14700 nM; IC50 (PC-3 [2]): 14700 nM; IC50 (A549): 14700 nM
CC(C)n1cnc2c(-c3cccc(COCCCCCCC(=O)NO)c3)nc(N3CCOCC3)nc21 | 160 | 35 | 160 |  | 
O=C(CCCCCCC(=O)Nc1nnc(-c2ccc(Br)o2)s1)NO |  |  |  | 880 nM | IC50 (PC-3 [2]): 880 nM; IC50 (ASPC1): 880 nM; IC50 (SW-620): 880 nM
CC(C)n1cnc2c(-c3cccc(OCCCCCC(=O)NO)c3)nc(N3CCOCC3)nc21 | 160 | 35 | 160 |  | 
O=C(CCCn1cc(CN2C(=O)/C(=N\O)c3cc(Br)ccc32)nn1)NO |  |  |  |  | IC50 (Histone deacetylase 2): 910 nM
O=C(CCCCCCC(=O)Nc1nnc(-c2ccco2)s1)NO |  |  |  | 880 nM | IC50 (PC-3 [2]): 880 nM; IC50 (ASPC1): 880 nM; IC50 (SW-620): 880 nM
CCCCCSc1ncc(C(=O)NO)c(N(Cc2ccccc2)S(=O)(=O)c2cccc(OC)c2)n1 |  |  |  |  | IC50 (RPMI-8226): > 5600 nM
O=C(Cn1cnc2c(c1=O)C1CCCCC1S2)Nc1ccc(C(=O)NO)cc1 (configuration not stated) |  |  |  | 4860 nM | IC50 (HCT-116): 4860 nM; IC50 (HepG2): 4860 nM
O=C(CCCn1cc(CN2C(=O)/C(=N\O)c3cc(F)ccc32)nn1)NO |  |  |  |  | IC50 (Histone deacetylase 2): 910 nM
Cc1ccc(-c2nnc(NC(=O)CCCCCCC(=O)NO)s2)o1 |  |  |  | 880 nM | IC50 (PC-3 [2]): 880 nM; IC50 (ASPC1): 880 nM; IC50 (SW-620): 880 nM
